Data published in the NIST ThermoML archive (doi:10.1021/je700754k).

How the values were obtained:
[1] = xn = mol fraction of the nth substance listed; settings: 101 kPa, Liquid
[2] = excess molar enthalpy (molar enthalpy of mixing); xn = mol fraction of the nth substance listed; settings: 303.15 K, 101 kPa, Liquid, Calvet calorimetry

CCCCn1cc[n+](C)c1.COS(=O)(=O)[O-] [1-butyl-3-methylimidazolium methyl sulfate] + CCO
mass density [kg/m3], [1]
Settings | 293.15 K | 303.15 K | 313.15 K | 323.15 K
x1 = 0.0459 | 854.75 | 846.48 | 838.14 | 829.69
x1 = 0.0987 | 913.25 | 905.23 | 897.17 | 889.06
x1 = 0.142 | 952 | 944.14 | 936.26 | 928.36
x1 = 0.1905 | 988.2 | 980.49 | 972.79 | 965.08
x1 = 0.2357 | 1016.76 | 1009.19 | 1001.63 | 994.07
x1 = 0.2733 | 1037.27 | 1029.8 | 1022.32 | 1014.88
x1 = 0.3516 | 1073.29 | 1065.97 | 1058.67 | 1051.41
x1 = 0.4381 | 1104.9 | 1097.71 | 1090.57 | 1083.48
x1 = 0.5335 | 1132.61 | 1125.56 | 1118.55 | 1111.6
x1 = 0.5712 | 1141.96 | 1134.95 | 1127.99 | 1121.09
x1 = 0.6742 | 1163.83 | 1156.95 | 1150.1 | 1143.31
x1 = 0.7665 | 1180.16 | 1173.37 | 1166.61 | 1159.9
x1 = 0.8482 | 1192.27 | 1185.55 | 1178.85 | 1172.21
x1 = 0.9248 | 1202.35 | 1195.72 | 1189.08 | 1182.49
x1 = 1 | 1211.17 | 1204.48 | 1197.92 | 1191.39

[2]
Settings | excess molar enthalpy [kcal/mol]
x1 = 0.016 | 0.0504
x1 = 0.0338 | 0.088
x1 = 0.1032 | 0.206
x1 = 0.1897 | 0.277
x1 = 0.2821 | 0.316
x1 = 0.3379 | 0.305
x1 = 0.5068 | 0.256
x1 = 0.5946 | 0.229
x1 = 0.7119 | 0.166
x1 = 0.7889 | 0.122
x1 = 0.9083 | 0.0526

CCCCn1cc[n+](C)c1.F[B-](F)(F)F [1-butyl-3-methylimidazolium tetrafluoroborate] + C[N+](=O)[O-]
[1], x1 = 1
Settings | mass density [kg/m3]
293.15 K | 1204.99
303.15 K | 1197.89
313.15 K | 1190.81
323.15 K | 1183.78

CCO [ethanol] + CCCCn1cc[n+](C)c1.F[B-](F)(F)F
[1], x2 = 0
Settings | mass density [kg/m3]
293.15 K | 789.38
303.15 K | 780.78
313.15 K | 772.04
323.15 K | 763.14

CCCCn1cc[n+](C)c1.COS(=O)(=O)[O-] [1-butyl-3-methylimidazolium methyl sulfate] + C[N+](=O)[O-]
mass density [kg/m3], [1]
Settings | 293.15 K | 303.15 K | 313.15 K | 323.15 K
x1 = 0.0398 | 1152.79 | 1140.52 | 1128.19 | 1115.81
x1 = 0.1021 | 1167.13 | 1156.18 | 1145.2 | 1134.22
x1 = 0.1433 | 1174.03 | 1163.71 | 1153.39 | 1143.09
x1 = 0.1988 | 1181.04 | 1171.38 | 1161.73 | 1152.11
x1 = 0.2444 | 1185.56 | 1176.34 | 1167.13 | 1157.97
x1 = 0.2998 | 1189.98 | 1181.18 | 1172.41 | 1163.68
x1 = 0.3979 | 1195.81 | 1187.57 | 1179.37 | 1171.23
x1 = 0.4786 | 1199.41 | 1191.53 | 1183.69 | 1175.91
x1 = 0.5652 | 1202.31 | 1194.73 | 1187.19 | 1179.71
x1 = 0.7127 | 1206.24 | 1199.08 | 1191.95 | 1184.88
x1 = 0.8212 | 1208.19 | 1201.28 | 1194.38 | 1187.53
x1 = 0.8546 | 1208.81 | 1201.97 | 1195.14 | 1188.36
x1 = 1 | 1211.16 | 1204.45 | 1197.88 | 1191.35

[2]
Settings | excess molar enthalpy [kcal/mol]
x1 = 0.0804 | -0.038
x1 = 0.1617 | -0.0681
x1 = 0.2832 | -0.0946
x1 = 0.394 | -0.111
x1 = 0.4351 | -0.108
x1 = 0.5566 | -0.0999
x1 = 0.6675 | -0.0884
x1 = 0.7671 | -0.0652
x1 = 0.8761 | -0.0311

CCCCn1cc[n+](C)c1.F[B-](F)(F)F [1-butyl-3-methylimidazolium tetrafluoroborate] + CCO
mass density [kg/m3], [1]
Settings | 293.15 K | 303.15 K | 313.15 K | 323.15 K
x1 = 0.0517 | 854.59 | 846.27 | 837.83 | 829.27
x1 = 0.0918 | 895.67 | 887.54 | 879.27 | 870.9
x1 = 0.1479 | 943.11 | 935.12 | 927.02 | 918.84
x1 = 0.1995 | 980.07 | 972.15 | 964.15 | 956.11
x1 = 0.2518 | 1011.33 | 1003.46 | 995.56 | 987.64
x1 = 0.3228 | 1046.79 | 1039.01 | 1031.22 | 1023.46
x1 = 0.4219 | 1085.81 | 1078.14 | 1070.51 | 1062.91
x1 = 0.5356 | 1120.88 | 1113.35 | 1105.88 | 1098.46
x1 = 0.6244 | 1142.66 | 1135.23 | 1127.86 | 1120.54
x1 = 0.709 | 1160.24 | 1152.89 | 1145.59 | 1138.37
x1 = 0.8295 | 1181.36 | 1174.12 | 1166.93 | 1159.8
x1 = 0.9327 | 1196.33 | 1189.16 | 1182.04 | 1174.97
x1 = 1 | 1204.93 | 1197.83 | 1190.74 | 1183.72

[2]
Settings | excess molar enthalpy [kcal/mol]
x1 = 0.0201 | 0.086
x1 = 0.0573 | 0.204
x1 = 0.1005 | 0.307
x1 = 0.1962 | 0.467
x1 = 0.3371 | 0.591
x1 = 0.4225 | 0.624
x1 = 0.5001 | 0.6
x1 = 0.5874 | 0.545
x1 = 0.6333 | 0.49
x1 = 0.7422 | 0.399
x1 = 0.8291 | 0.277
x1 = 0.9257 | 0.149

CCO [ethanol] + CCCCn1cc[n+](C)c1.COS(=O)(=O)[O-]
[1], x2 = 0
Settings | mass density [kg/m3]
293.15 K | 789.53
303.15 K | 780.94
313.15 K | 772.2
323.15 K | 763.28

C[N+](=O)[O-] [nitromethane] + CCCCn1cc[n+](C)c1.COS(=O)(=O)[O-]
[1], x2 = 0
Settings | mass density [kg/m3]
293.15 K | 1137.92
303.15 K | 1124.32
313.15 K | 1110.62
323.15 K | 1096.82

C[N+](=O)[O-] [nitromethane] + CCCCn1cc[n+](C)c1.F[B-](F)(F)F
mass density [kg/m3], [1]
Settings | 293.15 K | 303.15 K | 313.15 K | 323.15 K
x2 = 0 | 1137.98 | 1124.39 | 1110.68 | 1096.88
x2 = 0.0512 | 1154.27 | 1142.08 | 1129.84 | 1117.57
x2 = 0.0991 | 1164.29 | 1152.98 | 1141.66 | 1130.32
x2 = 0.1392 | 1170.56 | 1159.82 | 1149.08 | 1138.35
x2 = 0.2026 | 1178.15 | 1168.09 | 1158.06 | 1148.05
x2 = 0.2986 | 1186.08 | 1176.78 | 1167.52 | 1158.31
x2 = 0.3565 | 1189.62 | 1180.67 | 1171.76 | 1162.9
x2 = 0.3972 | 1191.64 | 1182.9 | 1174.2 | 1165.55
x2 = 0.4553 | 1194.13 | 1185.65 | 1177.21 | 1168.83
x2 = 0.5231 | 1196.42 | 1188.18 | 1179.99 | 1171.87
x2 = 0.5949 | 1198.48 | 1190.48 | 1182.53 | 1174.65
x2 = 0.6863 | 1200.57 | 1192.82 | 1185.11 | 1177.48
x2 = 0.8073 | 1202.6 | 1195.13 | 1187.69 | 1180.33
x2 = 0.8634 | 1203.37 | 1196.01 | 1188.69 | 1181.43

[2]
Settings | excess molar enthalpy [kcal/mol]
x2 = 0.0016 | -0.00167
x2 = 0.0273 | -0.022
x2 = 0.0558 | -0.0435
x2 = 0.1131 | -0.0686
x2 = 0.202 | -0.097
x2 = 0.3621 | -0.116
x2 = 0.5067 | -0.108
x2 = 0.6037 | -0.0978
x2 = 0.7226 | -0.0755
x2 = 0.8827 | -0.038
